Like-named read-outs stand apart in the source and are kept apart here. Positions of bridges follow the written chain, without caps; N, C: chain ends. Non-standard residues stand in square brackets, D forms with d. Residues, ends and D or L forms follow the SMILES beside them.
Columns and labels:
C. elegans iPGM = target: T1, C. elegans iPGM (Caenorhabditis elegans, UniProt G5EFZ1); test: PGM enzyme-coupled bioluminescent end point assay (Kinase-Glo Plus); assay type: biochemical
T1 sequence (G5EFZ1 1-539): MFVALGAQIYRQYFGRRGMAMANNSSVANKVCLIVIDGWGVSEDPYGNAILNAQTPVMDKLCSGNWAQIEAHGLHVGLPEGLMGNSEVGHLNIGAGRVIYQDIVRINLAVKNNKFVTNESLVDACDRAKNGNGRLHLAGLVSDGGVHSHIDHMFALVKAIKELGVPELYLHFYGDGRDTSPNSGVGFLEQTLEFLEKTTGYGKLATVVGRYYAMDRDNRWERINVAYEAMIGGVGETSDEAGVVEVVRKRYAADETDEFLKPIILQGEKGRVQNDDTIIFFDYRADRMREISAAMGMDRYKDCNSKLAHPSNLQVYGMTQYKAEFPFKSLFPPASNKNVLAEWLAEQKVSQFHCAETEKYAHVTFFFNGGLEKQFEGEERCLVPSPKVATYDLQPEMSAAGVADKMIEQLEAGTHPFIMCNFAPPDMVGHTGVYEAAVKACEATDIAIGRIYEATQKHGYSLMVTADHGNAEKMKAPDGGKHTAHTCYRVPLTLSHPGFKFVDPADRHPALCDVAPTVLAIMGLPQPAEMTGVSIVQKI

B. malayi iPGM = B. malayi iPGM (Brugia malayi, UniProt Q4VWF8); test: biochemical
Sequence of B. malayi iPGM (Q4VWF8 whole entry, looked up): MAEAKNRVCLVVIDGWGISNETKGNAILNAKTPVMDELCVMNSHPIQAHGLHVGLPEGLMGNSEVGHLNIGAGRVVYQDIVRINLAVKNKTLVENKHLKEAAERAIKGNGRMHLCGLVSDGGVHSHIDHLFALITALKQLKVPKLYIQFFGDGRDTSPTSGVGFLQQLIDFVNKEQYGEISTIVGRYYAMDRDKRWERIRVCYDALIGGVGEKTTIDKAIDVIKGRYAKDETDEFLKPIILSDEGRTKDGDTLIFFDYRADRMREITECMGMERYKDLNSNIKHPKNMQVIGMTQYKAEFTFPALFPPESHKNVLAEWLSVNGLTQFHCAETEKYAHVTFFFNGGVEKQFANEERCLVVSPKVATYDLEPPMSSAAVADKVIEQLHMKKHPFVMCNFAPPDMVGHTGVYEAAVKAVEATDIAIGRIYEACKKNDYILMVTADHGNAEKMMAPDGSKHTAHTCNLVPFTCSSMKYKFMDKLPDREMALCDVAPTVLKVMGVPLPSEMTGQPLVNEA

O. volvulus iPGM = O. volvulus iPGM (Onchocerca volvulus, UniProt I6LDA6); test: biochemical
Sequence of O. volvulus iPGM (I6LDA6 whole entry, looked up): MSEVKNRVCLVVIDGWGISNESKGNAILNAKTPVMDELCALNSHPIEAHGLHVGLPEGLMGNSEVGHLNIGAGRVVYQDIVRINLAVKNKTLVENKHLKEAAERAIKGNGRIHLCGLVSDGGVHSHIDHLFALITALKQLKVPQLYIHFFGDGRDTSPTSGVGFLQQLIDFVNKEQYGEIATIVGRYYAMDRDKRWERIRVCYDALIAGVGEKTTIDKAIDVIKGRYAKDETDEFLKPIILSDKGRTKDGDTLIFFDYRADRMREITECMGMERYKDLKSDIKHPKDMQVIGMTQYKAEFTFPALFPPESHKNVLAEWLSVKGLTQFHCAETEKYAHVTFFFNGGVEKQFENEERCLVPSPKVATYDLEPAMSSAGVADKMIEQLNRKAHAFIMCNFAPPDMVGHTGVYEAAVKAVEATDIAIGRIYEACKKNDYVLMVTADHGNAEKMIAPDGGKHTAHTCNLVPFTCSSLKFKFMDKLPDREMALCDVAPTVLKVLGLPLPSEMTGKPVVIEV

E. coli iPGM = E. coli iPGM (Escherichia coli, UniProt P37689); test: biochemical
Sequence of E. coli iPGM (P37689 whole entry, looked up): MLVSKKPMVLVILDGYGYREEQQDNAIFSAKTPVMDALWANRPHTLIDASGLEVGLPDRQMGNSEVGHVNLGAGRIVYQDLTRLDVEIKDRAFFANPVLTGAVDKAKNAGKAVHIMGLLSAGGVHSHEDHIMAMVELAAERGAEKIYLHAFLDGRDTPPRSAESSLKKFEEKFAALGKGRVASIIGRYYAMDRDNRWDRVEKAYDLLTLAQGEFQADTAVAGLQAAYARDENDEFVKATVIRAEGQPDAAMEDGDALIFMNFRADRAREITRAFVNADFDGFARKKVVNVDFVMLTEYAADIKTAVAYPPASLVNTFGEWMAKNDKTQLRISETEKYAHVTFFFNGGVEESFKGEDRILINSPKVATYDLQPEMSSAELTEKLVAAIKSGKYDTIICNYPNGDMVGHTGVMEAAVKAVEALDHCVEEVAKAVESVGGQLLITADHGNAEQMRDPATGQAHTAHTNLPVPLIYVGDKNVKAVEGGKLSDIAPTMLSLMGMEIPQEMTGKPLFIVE

[1] = pIC50, apparent C. elegans iPGM
[2] = pIC50, apparent O. volvulus iPGM

| Compound | IC50 (C. elegans iPGM; pIC50 C. elegans iPGM) [nM] | IC50 (B. malayi iPGM; pIC50 B. malayi iPGM) [nM] | IC50 (O. volvulus iPGM; pIC50, M O. volvulus iPGM) [nM] | IC50 (E. coli iPGM; pIC50 E. coli iPGM) [nM] | IC50 (C. elegans iPGM; [1]) [nM] | IC50 (B. malayi iPGM; pIC50, apparent B. malayi iPGM) [nM] | IC50 (O. volvulus iPGM; [2]) [nM] | IC50 (E. coli iPGM; pIC50, apparent E. coli iPGM) [nM] | other results |
| --- | --- | --- | --- | --- | --- | --- | --- | --- | --- |
| CC(C)C[C@H](NC(=O)[C@H](Cc1ccc(O)cc1)NC(=O)[C@@H]1CSCC(=O)N[C@H](Cc2ccc(O)cc2)C(=O)N[C@@H](CC(=O)O)C(=O)N[C@@H](Cc2ccc(O)cc2)C(=O)N2CCC[C@H]2C(=O)NCC(=O)N[C@@H](CC(=O)O)C(=O)N[C@@H](Cc2ccc(O)cc2)C(=O)N1)C(=O)N[C@@H](Cc1ccc(O)cc1)C(=O)NCC(=O)N[C@H](C(=O)N[C@@H](CS)C(N)=O)[C@@H](C)O [Ce-2a] | 0.174 | 0.324 | 49 | 0.263 |  |  |  |  | IC50 (C. elegans iPGM; pIC50, M C. elegans iPGM): 4.07 nM; IC50 (B. malayi iPGM; pIC50, M B. malayi iPGM): 8.51 nM; IC50 (O. volvulus iPGM; pIC50 O. volvulus iPGM): 0.209 nM; IC50 (E. coli iPGM; pIC50, M E. coli iPGM): 3.09 nM |
| CC(C)C[C@H](NC(=O)[C@H](Cc1ccc(O)cc1)NC(=O)[C@@H]1CSCC(=O)N[C@H](Cc2ccc(O)cc2)C(=O)N[C@@H](CC(=O)O)C(=O)N[C@@H](Cc2ccc(O)cc2)C(=O)N2CCC[C@H]2C(=O)NCC(=O)N[C@@H](CC(=O)O)C(=O)N[C@@H](Cc2ccc(O)cc2)C(=O)N1)C(=O)N[C@@H](Cc1ccc(O)cc1)C(=O)NCC(=O)N[C@H](C(N)=O)[C@@H](C)O [Ce-2b] | 15.8 | 692 |  | 10.5 |  |  |  |  | IC50 (O. volvulus iPGM; pIC50 O. volvulus iPGM): 2450 nM |
| CC[C@H](C)[C@@H]1NC(=O)[C@H](CCC(=O)O)NC(=O)[C@@H]2CCCN2C(=O)[C@H](C)NC(=O)[C@H](CC(N)=O)NC(=O)[C@@H]2CCCN2C(=O)[C@H](Cc2c[nH]c3ccccc23)NC(=O)[C@H](CO)NC(=O)[C@@H](Cc2ccc(O)cc2)NC(=O)CSC[C@@H](C(=O)N[C@@H](CS)C(=O)NCC(N)=O)NC(=O)[C@H](CCCCN)NC(=O)[C@H](Cc2c[nH]c3ccccc23)NC1=O [Bm-1] ({CH2CO}-[dY]SWPNAPEIWKCCG-NH2; thioether N-12) |  |  |  |  | 5010 | 1290 | 1320 | 4900 |  |
| CC[C@H](C)[C@@H]1NC(=O)[C@H](CCCNC(=N)N)NC(=O)[C@H](Cc2ccccc2)NC(=O)[C@@H]2CCCN2C(=O)[C@H](CC(N)=O)NC(=O)[C@H](C)NC(=O)[C@H](CC(C)C)NC(=O)[C@H]([C@@H](C)O)NC(=O)[C@H]([C@@H](C)CC)NC(=O)[C@H](Cc2ccc(O)cc2)NC(=O)CSC[C@@H](C(=O)NCC(N)=O)NC(=O)[C@H](Cc2c[nH]cn2)NC(=O)[C@H](CC(C)C)NC1=O [Ce-3] ({CH2CO}-YITLANPFRILHCG-NH2; thioether N-13) |  |  | 5500 |  |  |  |  | 537 | IC50 (C. elegans iPGM): 468 nM |
| CC(C)C[C@@H]1NC(=O)[C@@H](Cc2ccc(O)cc2)NC(=O)CSC[C@@H](C(=O)N[C@@H](CC(N)=O)C(=O)N[C@H](C(=O)N[C@@H](CS)C(=O)NCC(N)=O)[C@@H](C)O)NC(=O)[C@H](CC(N)=O)NC(=O)[C@@H]2CCCN2C(=O)[C@H](Cc2c[nH]c3ccccc23)NC(=O)[C@H](CCC(=O)O)NC1=O [Bm-4] ({CH2CO}-[dY]LEWPNCNTCG-NH2; thioether N-7) |  |  |  |  | 2450 | 575 | 794 | 2750 |  |
| CC(C)C[C@H](NC(=O)[C@H](Cc1ccc(O)cc1)NC(=O)[C@@H]1CSCC(=O)N[C@H](Cc2ccc(O)cc2)C(=O)N[C@@H](CC(=O)O)C(=O)N[C@@H](Cc2ccc(O)cc2)C(=O)N2CCC[C@H]2C(=O)NCC(=O)N[C@@H](CC(=O)O)C(=O)N[C@@H](Cc2ccc(O)cc2)C(=O)N1)C(=O)N[C@@H](Cc1ccc(O)cc1)C(=O)NCC(=O)N[C@H](C(=O)N[C@@H](CO)C(=O)NCC(N)=O)[C@@H](C)O [Ce-2S] | 8.32 | 525 | 447 | 10 |  |  |  |  | IC50 (C. elegans iPGM): ~10 nM; IC50 (C. elegans iPGM; pIC50, M C. elegans iPGM): 12 nM; IC50 (B. malayi iPGM; pIC50, M B. malayi iPGM): 407 nM; IC50 (O. volvulus iPGM; pIC50 O. volvulus iPGM): 1020 nM; IC50 (E. coli iPGM; IC50): ~10 nM |
| CC(=O)N[C@H](Cc1ccc(O)cc1)C(=O)N[C@@H](CC(=O)O)C(=O)N[C@@H](Cc1ccc(O)cc1)C(=O)N1CCC[C@H]1C(=O)NCC(=O)N[C@@H](CC(=O)O)C(=O)N[C@@H](Cc1ccc(O)cc1)C(=O)N[C@@H](CO)C(=O)N[C@@H](Cc1ccc(O)cc1)C(=O)N[C@@H](CC(C)C)C(=O)N[C@@H](Cc1ccc(O)cc1)C(=O)NCC(=O)N[C@H](C(=O)N[C@@H](CS)C(=O)NCC(N)=O)[C@@H](C)O [Ce-L2] (Ac-[dY]DYPGDYSYLYGTCG-NH2) | 1150 | 12900 |  | 1320 |  |  |  |  |  |
| CC[C@H](C)[C@@H]1NC(=O)[C@H](CCCNC(=N)N)NC(=O)[C@H](Cc2ccccc2)NC(=O)[C@@H]2CCCN2C(=O)[C@H](CC(N)=O)NC(=O)[C@H](C)NC(=O)[C@H](CC(C)C)NC(=O)[C@H]([C@@H](C)O)NC(=O)[C@H]([C@@H](C)O)NC(=O)[C@H](Cc2ccc(O)cc2)NC(=O)CSC[C@@H](C(=O)NCC(N)=O)NC(=O)[C@H](Cc2c[nH]cn2)NC(=O)[C@H](CC(C)C)NC1=O [Ce-4] ({CH2CO}-YTTLANPFRILHCG-NH2; thioether N-13) |  |  | 4270 |  |  |  |  |  | IC50 (C. elegans iPGM): 6030 nM |
| NC(=O)[C@H](Cc1ccc(O)cc1)NC(=O)[C@@H]1CSCC(=O)N[C@H](Cc2ccc(O)cc2)C(=O)N[C@@H](CC(=O)O)C(=O)N[C@@H](Cc2ccc(O)cc2)C(=O)N2CCC[C@H]2C(=O)NCC(=O)N[C@@H](CC(=O)O)C(=O)N[C@@H](Cc2ccc(O)cc2)C(=O)N1 [Ce-2f] ({CH2CO}-[dY]DYPGDYCY-NH2; thioether N-8) | 51300 |  |  | 25700 |  |  |  |  |  |
| CC(C)C[C@@H]1NC(=O)[C@@H](Cc2ccc(O)cc2)NC(=O)CSC[C@@H](C(=O)N[C@@H](CO)C(=O)N[C@H](C(=O)N[C@@H](CS)C(=O)NCC(N)=O)[C@@H](C)O)NC(=O)[C@H](CC(N)=O)NC(=O)[C@@H]2CCCN2C(=O)[C@H](Cc2c[nH]c3ccccc23)NC(=O)[C@H](CC(=O)O)NC1=O [Bm-5] ({CH2CO}-[dY]LDWPNCSTCG-NH2; thioether N-7) |  |  |  |  | 2510 | 692 | 1020 | 2880 |  |
| CC[C@H](C)[C@@H]1NC(=O)[C@H](CO)NC(=O)[C@H](CCCNC(=N)N)NC(=O)[C@H](CC(N)=O)NC(=O)[C@H](CCC(N)=O)NC(=O)[C@@H](Cc2ccc(O)cc2)NC(=O)CSC[C@@H](C(=O)NCC(N)=O)NC(=O)[C@H](CS)NC(=O)CNC(=O)[C@H](Cc2ccc(O)cc2)NC(=O)[C@H](CC(C)C)NC(=O)[C@H](Cc2c[nH]c3ccccc23)NC1=O [Bm-3] ({CH2CO}-[dY]QNRSIWLYGCCG-NH2; thioether N-12) |  |  |  |  |  |  |  |  | pIC50, apparent C. elegans iPGM (C. elegans iPGM): 5.05; pIC50, apparent E. coli iPGM (E. coli iPGM): 5.03 |
| CC(C)C[C@H](NC(=O)[C@H](Cc1ccc(O)cc1)NC(=O)[C@@H]1CSCC(=O)N[C@H](Cc2ccc(O)cc2)C(=O)N[C@@H](CC(=O)O)C(=O)N[C@@H](Cc2ccc(O)cc2)C(=O)N2CCC[C@H]2C(=O)NCC(=O)N[C@@H](CC(=O)O)C(=O)N[C@@H](Cc2ccc(O)cc2)C(=O)N1)C(=O)N[C@@H](Cc1ccc(O)cc1)C(=O)NCC(N)=O [Ce-2c] | 22.9 | 1170 |  | 10.5 |  |  |  |  | IC50 (O. volvulus iPGM; pIC50 O. volvulus iPGM): 3890 nM |
| C[C@@H](O)[C@H](NC(=O)[C@H](CO)NC(=O)[C@@H]1CSCC(=O)N[C@H](Cc2ccc(O)cc2)C(=O)N2CCC[C@H]2C(=O)N[C@@H](CCC(=O)O)C(=O)N[C@@H](Cc2c[nH]c3ccccc23)C(=O)N2CCC[C@H]2C(=O)N[C@@H](CC(N)=O)C(=O)N1)C(=O)N[C@@H](CS)C(=O)NCC(N)=O [Bm-6] ({CH2CO}-[dY]PEWPNCSTCG-NH2; thioether N-7) |  |  |  |  | 2630 | 692 | 832 | 2820 |  |
| CC(C)[C@@H]1NC(=O)[C@H](C)NC(=O)[C@@H](Cc2ccc(O)cc2)NC(=O)CSC[C@@H](C(=O)N[C@@H](CCCNC(=N)N)C(=O)N[C@H](C(=O)N[C@@H](CS)C(=O)NCC(N)=O)[C@@H](C)O)NC(=O)[C@H](CC(N)=O)NC(=O)[C@@H]2CCCN2C(=O)[C@H](Cc2c[nH]c3ccccc23)NC1=O [Bm-7] ({CH2CO}-[dY]AVWPNCRTCG-NH2; thioether N-7) |  |  |  |  | 7410 | 5250 | 4270 | 7590 |  |
| CC(C)C[C@H](NC(=O)[C@H](Cc1ccc(O)cc1)NC(=O)[C@@H]1CSCC(=O)N[C@H](Cc2ccc(O)cc2)C(=O)N[C@@H](CC(=O)O)C(=O)N[C@@H](Cc2ccc(O)cc2)C(=O)N2CCC[C@H]2C(=O)NCC(=O)N[C@@H](CC(=O)O)C(=O)N[C@@H](Cc2c[nH]cn2)C(=O)N1)C(=O)N[C@@H](Cc1ccc(O)cc1)C(=O)NCC(=O)N[C@H](C(=O)N[C@@H](CS)C(=O)NCC(N)=O)[C@@H](C)O [Ce-1] |  |  | 24.5 |  | 3.98 | 12 |  | 4.17 |  |

Reference: paper PMC5382265, “Macrocycle peptides delineate locked-open inhibition mechanism for microorganism phosphoglycerate mutases” (Nature Communications, 2017)
